From patent US20110045004A1, “METHOD FOR IN-VITRO DETECTING PATHOGENIC T HELPER CELLS AND PHARMACEUTICAL COMPOSITIONS FOR TREATING AUTOIMMUNE DISEASES” (DEUTCHES RHEUMA-FORSCHUNGSZENTRUM BERLIN, priority 2007, published 2011)

Assays:
[1] = test system: twist1 mRNA in 4-w-old Th1 cells; assay: twist1 mRNA (RT PCR) in restimulated 4-w-old Th1 cells with inhibitors or single stimuli; assay type: cell-based, murine; conditions: for PMA/ionomycin mediated up-regulation of twist1 mRNA expression: 4-w-old Th1 cells restimulated 3 h with PMA/ionomycin and IL-2, serial dilutions of inhibitor (FIG. 2B); for induction of twist1 expression by stimulus alone: 4-w-old Th1 cells restimulated 3 h in the presence of IL-2 (FIG. 2C)
Protocol: (§1) Lymphocytes were cultured in complete RPMI1640 (Invitrogen) supplemented with 10% heat-inactivated fetal calf serum, 100 units/ml penicillin, 0.1 mg/ml streptomycin and 10 μM β-mercaptoethanol. Naïve CD4+CD62L+ lymphocytes from 6-8 w old DO11.10 mice were isolated as described. Irradiated (30 Gy) BALB/c splenocytes were used as APCs at a ratio of 5:1. The cognate peptide ova323-339 (R. Volkmer-Engert, Humboldt University of Berlin, Germany) was added at 0.5 μM. Alternatively, plates were coated with 3 μg/ml anti-CD3 (145-2C11) in PBS, and CD4+ cells were plated at a density of 2×10^6 cells/ml in medium plus 1 μg/ml soluble anti-CD28 (37.51). For Th1 differentiation, cells were stimulated in the presence of 5 ng/ml recombinant murine IL-12 (R&D Systems) and 5 μg/ml anti-IL-4 antibody (11B11). For Th2 differentiation, cells were stimulated in the presence of murine IL-4 (100 ng/ml, culture supernatant of HEK293T cells transfected with an expression plasmid, encoding murine IL-4), 5 μg/ml anti-IL-12 antibody (C17.8.6) and anti-IFN-γ antibody (AN18.17.24). Dead cells were removed by Ficoll-Histopaque separation. Every 6 d viable Th cells were harvested and restimulated under the original conditions, except that 10 ng/ml murine IL-2 (R&D Systems) was added.
Cells were re-stimulated with 10 ng/ml PMA, and 1 μg/ml ionomycin. Alternatively, cells were re-stimulated with plate-bound anti-CD3 (10 μg/ml), and soluble anti-CD28 ([…]). For re-stimulation of murine T cells, 10 ng/ml IL-2 was added. For intracellular staining of cytokines, T cells were stimulated for 2 h with PMA/ionomycin and additional 3 h with 5 μg/ml of brefeldin A to block the secretion of cytokines. Cells were fixed with 2% formaldehyde in PBS for 15 min at room temperature and permeabilized with 0.5% w/v saponin.
(§2) Total RNA was prepared using NucleoSpin RNA II (Macherey-Nagel) or RNeasy kit (Qiagen). […] For the normalization of murine and human cDNA the transcripts for the housekeeping genes hypoxanthine guanine phosphoribosyl transferase (HPRT) and ubiquitin ligase H5 (UbCH5) were quantified, respectively. Data were evaluated using Lightcycler software. Relative expression was calculated as follows: Et^ΔCp target gene (reference-sample)/EhΔCp housekeeping gene (reference-sample), where Cp represents the crossing point and E represents the reaction efficiency, determined by serial dilution of DNA.
(A) Comparison of the genomic sequence of the murine and the human proximal twist1 promoter (−150 to −100). […] The binding of NFAT1 (D) and the NF-κB subunit p65 (E) to the proximal promoter of twist1 was analyzed by chromatin immunoprecipitation (ChIP). […] The immunoprecipitated DNA was quantified by RT PCR using primers specific for the proximal promoter. […]

[2] = test system: Rag-deficient mice, intestine; assay: Transfer colitis model with Hop shRNA transduced Th1 cells; assay type: in vivo, murine; conditions: Th1 cells transduced with shRNA transferred into Rag-deficient mice (FIG. 12)
Text: To assess the functional role of hop we used a T cell dependent model of inflammatory bowel disease. In this model, T cells are transferred into Rag-deficient or SCID mice lacking T and B cells. In this model, the transferred T cells react against the intestinal bacterial flora leading to inflammation in the intestine. For the analysis of the function of Hop we inhibited the expression of Hop by shRNA-mediated knock-down. Polyclonally activated Th1 cells transduced with a retroviral vector encoding a Hop-specific shRNA or a control shRNA were transferred into Rag-deficient mice. […] The transfer of control Th1 cells lead to severe inflammation of the intestine with strong infiltration of inflammatory cells and a complete loss of the intestinal architecture.

[3] = test system: twist1 mRNA in DO11.10 Th cells; assay: twist1 mRNA induction by Th1-polarizing signals in DO11.10 Th cells; assay type: cell-based, murine; conditions: for induction of twist1 expression by polarizing signal: CD62Lhi DO11.10 Th cells stimulated 5 d, then 3 h PMA/ionomycin and IL-2, IFN-γ tested in the absence of IL-12 (FIG. 3A)
Protocol: as §1, §2
Twist1 mRNA of Th cells activated for 3 h with PMA/ionomycin and IL-2 was quantified by RT PCR (A-D). […] Twist1 transcripts were quantified on d 11. […]

O=C(Nc1ccc(-n2nc(C(F)(F)F)cc2C(F)(F)F)cc1)c1ccc(Cl)cc1 [BTP1]
PMA/ionomycin mediated up-regulation of twist1 mRNA expression [1]: blocked the PMA/ionomycin mediated up-regulation of twist1 mRNA expression in a dose-dependent fashion

S=C(S)N1CCCC1 [PDTC, pyrrolidine dithiocarbamate]
PMA/ionomycin mediated up-regulation of twist1 mRNA expression [1]: blocked the PMA/ionomycin mediated up-regulation of twist1 mRNA expression in a dose-dependent fashion

CCCCCCCCCCCCCC(=O)O[C@@H]1[C@@H](C)[C@@]2(O)[C@@H](C=C(CO)C[C@]3(O)C(=O)C(C)=C[C@@H]23)[C@@H]2C(C)(C)[C@]12OC(C)=O [PMA]
induction of twist1 expression by stimulus alone [1]: did not induce twist1 expression

Hop-specific shRNA: retroviral vector encoded shRNA against Hop, target sequence SEQ ID NO. 40, whole shRNA SEQ ID NO. 41 (TGCAGATCTGTTACGGACTATTCAAGAGATAGTCCGTAACAGATCTGCTTTTTTC)
clinical signs of inflammation, histological analysis of the intestine [2]: strongly reduced clinical signs of inflammation

IFN-γ: cytokine added in the absence of IL-12, 10 ng/ml
induction of twist1 expression by polarizing signal [3]: did not induce twist1 expression

TNF-α
induction of twist1 expression by stimulus alone [1]: did not induce twist1 expression

B1: IL-12: recombinant murine IL-12, Th1-polarizing signal (protein, UniProt P43431 23-215; P43432 23-335, looked up)
Interleukin-12 subunit alpha: RVIPVSGPARCLSQSRNLLKTTDDMVKTAREKLKHYSCTAEDIDHEDITRDQTSTLKTCLPLELHKNESCLATRETSSTTRGSCLPPQKTSLMMTLCLGSIYEDLKMYQTEFQAINAALQNHNHQQIILDKGMLVAIDELMQSLNHNGETLRQKPPVGEADPYRVKMKLCILLHAFSTRVVTINRVMGYLSSA
Interleukin-12 subunit beta: MWELEKDVYVVEVDWTPDAPGETVNLTCDTPEEDDITWTSDQRHGVIGSGKTLTITVKEFLDAGQYTCHKGGETLSHSHLLLHKKENGIWSTEILKNFKNKTFLKCEAPNYSGRFTCSWLVQRNMDLKFNIKSSSSSPDSRAVTCGMASLSAEKVTLDQRDYEKYSVSCQEDVTCPTAEETLPIELALEARQQNKYENYSTSFFIRDIIKPDPPKNLQMKPLKNSQVEVSWEYPDSWSTPHSYFSLKFFVRIQRKKEKMKETEEGCNQKGAFLVEKTSTEVQCKGGNVCVQAQDRYYNSSCSKWACVPCRVRS
induction of twist1 expression by polarizing signal [3]: induced twist1 expression in a dose-dependent fashion
increase of TCR activation-dependent twist1 expression over one week stimulated Th1 cells ([3]; Th1 cells polarized one week with IL-12, reactivated another week in the presence of IL-12 (FIG. 3D)): 16 fold
